In PMC8102066 (eLife, 2021):
“And” between values parts separate entries of the source, which are not always exact repeats. Equal values may be shown once.

Legend:
[1] = molecular target: mGluR3 (Rattus norvegicus, UniProt P31422, INS669ASEIGTGFPFDPHYVEVLGERMHYVDVGPRDGTPVLFLHGNPTSSYVWRNIIPHVAPTHRCIAPDLIGMGKSDKPDLGYFFDDHVRFMDAFIEALGLEEVVLVIHDWGSALGFHWAKRNPERVKGIAFMEFIRPIPTWDEWPEFARETFQAFRTTDVGRKLIIDQNVFIEGTLPMGVVRPLTEVEMDHYREPFLNPVDREPLWRFPNELPIAGEPANIVALVEEYMDWLHQSPVPKLLFWGTPGVLIPPAEAARLAKSLPNCKAVDIGPGLNLLQEDNPDLIGSEIARWLSTLEISGLE); experiment: Inter-TMD FRET sensor (HaloTag in ICL2), live cells; details: for FRET response amplitude: mGluR3, inter-TMD FRET;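 as to all read-outs here: receptor HaloTag labeled with JF549 donor and JF646 acceptor (1:3), FRET taken as acceptor over summed donor plus acceptor fluorescence intensity, imaged at room temperature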
UniProt P31422, sequence (P31422 with tags, fused parts or gaps with the stated changes): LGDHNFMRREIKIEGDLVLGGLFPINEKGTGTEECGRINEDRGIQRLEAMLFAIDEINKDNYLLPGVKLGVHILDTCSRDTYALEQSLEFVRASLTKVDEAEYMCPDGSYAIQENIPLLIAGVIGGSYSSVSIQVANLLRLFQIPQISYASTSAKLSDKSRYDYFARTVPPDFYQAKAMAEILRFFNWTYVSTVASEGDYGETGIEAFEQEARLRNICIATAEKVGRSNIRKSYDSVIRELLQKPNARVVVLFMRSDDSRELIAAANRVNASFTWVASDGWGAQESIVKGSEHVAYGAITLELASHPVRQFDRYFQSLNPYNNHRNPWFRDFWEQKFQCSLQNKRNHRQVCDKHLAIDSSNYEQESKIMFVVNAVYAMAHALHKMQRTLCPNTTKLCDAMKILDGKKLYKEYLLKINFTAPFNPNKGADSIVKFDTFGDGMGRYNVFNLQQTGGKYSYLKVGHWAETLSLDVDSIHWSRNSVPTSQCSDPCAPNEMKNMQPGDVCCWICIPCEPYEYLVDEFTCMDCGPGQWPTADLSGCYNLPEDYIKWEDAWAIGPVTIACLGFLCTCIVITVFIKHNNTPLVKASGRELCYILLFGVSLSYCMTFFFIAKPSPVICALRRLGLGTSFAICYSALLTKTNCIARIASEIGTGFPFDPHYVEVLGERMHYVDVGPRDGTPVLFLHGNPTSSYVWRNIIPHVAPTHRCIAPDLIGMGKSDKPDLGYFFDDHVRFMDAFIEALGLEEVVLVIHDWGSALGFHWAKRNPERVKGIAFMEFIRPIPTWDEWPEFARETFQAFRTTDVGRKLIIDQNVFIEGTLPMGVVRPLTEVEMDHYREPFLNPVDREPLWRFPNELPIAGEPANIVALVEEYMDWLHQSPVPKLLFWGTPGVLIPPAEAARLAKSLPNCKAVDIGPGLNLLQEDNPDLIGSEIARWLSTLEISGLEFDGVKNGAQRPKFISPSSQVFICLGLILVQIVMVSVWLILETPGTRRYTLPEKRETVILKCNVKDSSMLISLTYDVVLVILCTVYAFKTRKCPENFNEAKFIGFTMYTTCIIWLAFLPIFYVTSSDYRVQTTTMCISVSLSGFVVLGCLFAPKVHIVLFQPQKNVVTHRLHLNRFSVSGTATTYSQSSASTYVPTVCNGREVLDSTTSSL

[2] = molecular target: T1, mGluR2-I779A (Rattus norvegicus, UniProt P31421, I779A); experiment: as above; assay type: cell-based; details: for FRET response amplitude: mGluR2-I779A, inter-TMD FRET
T1 construct: we performed calcium imaging experiments with mutations in the full-length mGluR2 background; expressed in transfected cells; host or cells: HEK 293 T
T1 sequence (P31421 19-872 I779A): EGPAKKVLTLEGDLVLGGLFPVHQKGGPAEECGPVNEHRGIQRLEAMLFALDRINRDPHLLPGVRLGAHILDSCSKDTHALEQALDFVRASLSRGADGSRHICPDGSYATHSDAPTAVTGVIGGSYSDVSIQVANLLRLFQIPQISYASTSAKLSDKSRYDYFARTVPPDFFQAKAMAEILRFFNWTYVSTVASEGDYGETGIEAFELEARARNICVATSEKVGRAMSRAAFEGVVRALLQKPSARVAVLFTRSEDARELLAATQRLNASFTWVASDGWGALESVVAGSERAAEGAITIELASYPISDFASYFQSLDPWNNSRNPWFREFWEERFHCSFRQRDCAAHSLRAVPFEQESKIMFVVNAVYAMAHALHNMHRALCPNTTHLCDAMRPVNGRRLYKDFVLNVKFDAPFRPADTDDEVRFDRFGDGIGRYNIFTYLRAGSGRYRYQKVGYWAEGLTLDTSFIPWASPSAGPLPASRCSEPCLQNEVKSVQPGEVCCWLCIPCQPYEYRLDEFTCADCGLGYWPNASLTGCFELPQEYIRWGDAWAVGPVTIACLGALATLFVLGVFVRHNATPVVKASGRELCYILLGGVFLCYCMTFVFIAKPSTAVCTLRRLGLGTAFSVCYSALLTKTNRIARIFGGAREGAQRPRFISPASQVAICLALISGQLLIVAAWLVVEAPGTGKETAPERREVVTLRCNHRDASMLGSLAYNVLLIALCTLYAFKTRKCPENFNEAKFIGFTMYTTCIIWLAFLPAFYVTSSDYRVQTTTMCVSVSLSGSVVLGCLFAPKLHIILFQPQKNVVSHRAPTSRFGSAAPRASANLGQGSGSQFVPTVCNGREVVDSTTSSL
Excerpt: Next, we asked how perturbing the TM6 interface would alter the conformational dynamics detected by our TMD FRET sensors.

[3] = molecular target: T2, mGluR3-3xTM4 (Rattus norvegicus, UniProt P31422, F690A/G694A/S686A); experiment: GIRK channel whole cell patch clamp in HEK 293 T cells; details: for GIRK current amplitude: mGluR3 3xTM4
T2 sequence (P31422 23-879 S686A/F690A/G694A): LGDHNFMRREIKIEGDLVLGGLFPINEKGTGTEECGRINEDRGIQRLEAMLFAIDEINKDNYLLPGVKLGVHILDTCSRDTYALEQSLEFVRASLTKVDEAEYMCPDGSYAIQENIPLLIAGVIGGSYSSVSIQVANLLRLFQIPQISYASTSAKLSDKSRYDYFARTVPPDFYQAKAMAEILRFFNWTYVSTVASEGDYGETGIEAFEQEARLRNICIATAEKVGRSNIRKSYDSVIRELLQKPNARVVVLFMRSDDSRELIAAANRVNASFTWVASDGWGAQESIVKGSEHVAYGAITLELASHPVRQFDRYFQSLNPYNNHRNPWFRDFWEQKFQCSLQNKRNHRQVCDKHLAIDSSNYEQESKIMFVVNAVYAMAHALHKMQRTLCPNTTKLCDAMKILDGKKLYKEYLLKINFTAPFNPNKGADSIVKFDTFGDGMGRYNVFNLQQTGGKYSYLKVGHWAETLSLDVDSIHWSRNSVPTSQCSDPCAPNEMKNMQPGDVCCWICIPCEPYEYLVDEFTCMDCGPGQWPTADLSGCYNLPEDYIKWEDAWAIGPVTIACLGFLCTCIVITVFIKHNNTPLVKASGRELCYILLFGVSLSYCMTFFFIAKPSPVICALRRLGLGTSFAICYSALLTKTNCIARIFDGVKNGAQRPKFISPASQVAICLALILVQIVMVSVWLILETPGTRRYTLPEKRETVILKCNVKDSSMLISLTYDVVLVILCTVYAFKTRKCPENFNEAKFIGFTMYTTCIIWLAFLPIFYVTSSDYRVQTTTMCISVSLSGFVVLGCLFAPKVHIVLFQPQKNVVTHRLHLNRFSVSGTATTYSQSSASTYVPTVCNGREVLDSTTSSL

[4] = molecular target: mGluR3-3xTM4 (Rattus norvegicus, UniProt P31422, F690A/G694A/INS669ASEIGTGFPFDPHYVEVLGERMHYVDVGPRDGTPVLFLHGNPTSSYVWRNIIPHVAPTHRCIAPDLIGMGKSDKPDLGYFFDDHVRFMDAFIEALGLEEVVLVIHDWGSALGFHWAKRNPERVKGIAFMEFIRPIPTWDEWPEFARETFQAFRTTDVGRKLIIDQNVFIEGTLPMGVVRPLTEVEMDHYREPFLNPVDREPLWRFPNELPIAGEPANIVALVEEYMDWLHQSPVPKLLFWGTPGVLIPPAEAARLAKSLPNCKAVDIGPGLNLLQEDNPDLIGSEIARWLSTLEISGLE/S686A); experiment: Inter-TMD FRET sensor (HaloTag in ICL2), live cells; details: for FRET response amplitude: mGluR3-3xTM4, inter-TMD FRET
UniProt P31422, sequence (P31422 with tags, fused parts or gaps with the stated changes): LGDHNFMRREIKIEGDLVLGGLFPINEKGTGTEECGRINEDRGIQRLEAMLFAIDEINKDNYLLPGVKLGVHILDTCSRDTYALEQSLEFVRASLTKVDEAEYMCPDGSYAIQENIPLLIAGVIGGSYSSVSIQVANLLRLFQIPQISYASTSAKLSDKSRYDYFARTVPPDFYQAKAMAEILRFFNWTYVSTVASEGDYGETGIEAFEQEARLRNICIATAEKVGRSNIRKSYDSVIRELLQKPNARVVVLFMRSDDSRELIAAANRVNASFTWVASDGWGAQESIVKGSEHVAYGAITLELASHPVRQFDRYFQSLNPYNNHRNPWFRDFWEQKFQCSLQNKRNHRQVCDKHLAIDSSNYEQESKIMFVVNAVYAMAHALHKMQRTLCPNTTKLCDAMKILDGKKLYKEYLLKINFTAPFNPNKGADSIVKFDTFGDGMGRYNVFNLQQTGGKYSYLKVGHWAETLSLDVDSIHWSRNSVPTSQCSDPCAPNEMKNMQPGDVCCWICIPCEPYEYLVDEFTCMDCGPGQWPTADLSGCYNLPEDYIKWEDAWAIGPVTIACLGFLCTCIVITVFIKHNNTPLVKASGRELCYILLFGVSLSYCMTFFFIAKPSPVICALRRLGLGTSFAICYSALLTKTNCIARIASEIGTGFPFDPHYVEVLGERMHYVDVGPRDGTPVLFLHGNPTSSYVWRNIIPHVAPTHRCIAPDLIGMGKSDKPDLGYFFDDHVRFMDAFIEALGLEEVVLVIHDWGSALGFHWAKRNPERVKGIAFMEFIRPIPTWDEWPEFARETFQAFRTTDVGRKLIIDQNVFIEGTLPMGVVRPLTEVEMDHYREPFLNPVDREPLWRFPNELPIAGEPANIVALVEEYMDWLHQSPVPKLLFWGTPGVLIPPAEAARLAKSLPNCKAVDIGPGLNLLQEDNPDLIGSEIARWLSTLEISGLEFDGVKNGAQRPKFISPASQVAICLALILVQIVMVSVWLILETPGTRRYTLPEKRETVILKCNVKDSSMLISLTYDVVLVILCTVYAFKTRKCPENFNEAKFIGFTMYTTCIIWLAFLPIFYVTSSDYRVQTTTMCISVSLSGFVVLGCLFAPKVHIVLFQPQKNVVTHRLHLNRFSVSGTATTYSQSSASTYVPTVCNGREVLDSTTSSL

[5] = molecular target: T2, mGluR3-3xTM4; experiment: Calcium imaging (G protein chimera, GCaMP6f) in HEK 293 T cells; details: for Calcium response amplitude: normalized to 1 mM glutamate, replicates
[6] = molecular target: T3, mGluR3-3xTM4_W (Rattus norvegicus, UniProt P31422, F690W/G694W/S686W); experiment: Calcium imaging in HEK 293 T cells; assay type: cell-based; details: for Calcium response amplitude: normalized to saturating glutamate
T3 construct: expressed in transfected cells; host or cells: HEK 293 T
T3 sequence (P31422 23-879 S686W/F690W/G694W): as the sequence (P31422 23-879 S686A/F690A/G694A) above, with A664W, A668W, A672W counted along it
Method: (§1) We tested this by introducing bulky, hydrophobic tryptophan residues into outward facing residues of TM4 to disrupt inter-subunit interaction.
(§2) Approximately 30 ROIs were analyzed per movie.

[7] = molecular target: T4, mGluR2-3xTM4_W (Rattus norvegicus, UniProt P31421, A677W/A681W/A685W); experiment: Calcium imaging in HEK 293 T cells; assay type: cell-based; details: normalized to 1 mM glutamate, replicates
T4 construct: expressed in transfected cells; host or cells: HEK 293 T
T4 sequence (P31421 19-872 A677W/A681W/A685W): as the sequence (P31421 19-872 I779A) above, with A659W, A663W, A667W, A761I counted along it
Method: as §1, §2

[8] = molecular target: mGluR3 (Rattus norvegicus, UniProt P31422); experiment: GIRK channel whole cell patch clamp in HEK 293 T cells; details: for GIRK current amplitude: mGluR3
mGluR3 (Rattus norvegicus, UniProt P31422), sequence (P31422 23-879): as the sequence (P31422 23-879 S686A/F690A/G694A) above, with A664S, A668F, A672G counted along it

[9] = molecular target: mGluR3-C127A-I788A (Rattus norvegicus, UniProt P31422, C127A/I788A); experiment: SiMPull subunit counting in the presence of ligands
mGluR3-C127A-I788A, sequence (P31422 23-879 C127A/I788A): as the sequence (P31422 23-879 S686A/F690A/G694A) above, with C105A, A664S, A668F, A672G, I766A counted along it

[10] = molecular target: mGluR2 (Rattus norvegicus, UniProt P31421); experiment: GIRK channel whole cell patch clamp in HEK 293 T cells
mGluR2, sequence (P31421 19-872): as the sequence (P31421 19-872 I779A) above, with A761I counted along it

[11] = molecular target: T5, mGluR2-I779W (Rattus norvegicus, UniProt P31421, I779W); experiment: Calcium imaging in HEK 293 T cells; assay type: cell-based; set-up: scale not given here
T5 construct: we performed calcium imaging experiments with mutations in the full-length mGluR2 background; expressed in transfected cells; host or cells: HEK 293 T
T5 sequence (P31421 19-872 I779W): as the sequence (P31421 19-872 I779A) above, with A761W counted along it
Method: as §2

[12] = molecular target: mGluR3-F690A (Rattus norvegicus, UniProt P31422, F690A); experiment: Calcium imaging in HEK 293 T cells; details: for Calcium response amplitude: mGluR3-F681A
mGluR3-F690A, sequence (P31422 23-879 F690A): as the sequence (P31422 23-879 S686A/F690A/G694A) above, with A664S, A672G counted along it

[13] = read-out: Glutamate EC50, inter-TMD FRET, normalized to saturating (1 mM) glutamate, unit inferred
[14] = read-out: Glutamate EC50, GIRK activation, normalized to saturating (1 mM) glutamate, unit inferred
[15] = read-out: Glutamate EC50, calcium imaging, normalized to saturating (1 mM) glutamate

N[C@@H](CCC(=O)O)C(=O)O [glutamate]
FRET response amplitude ([1]; Glutamate 1 nM): 0.00
FRET response amplitude ([1]; Glutamate 1 uM): 0.66 and 0.83 and 0.95 and 0.97 and 0.93 and 0.79 and 0.73
FRET response amplitude ([1]; Glutamate 10 uM): 0.80 and 0.95 and 0.97 and 1.05 and 0.98 and 0.87
FRET response amplitude ([1]; Glutamate 100 uM): 0.99 and 0.97 and 0.96 and 1.00
FRET response amplitude ([1]; Glutamate 1 mM): 1.00
EC50 [1, 13]: 230 ± 80 nM
FRET response amplitude ([2]; Glutamate 10 nM): 0.00
FRET response amplitude ([2]; Glutamate 100 nM): 0.00
FRET response amplitude ([2]; Glutamate 1 uM): 0.00
FRET response amplitude ([2]; Glutamate 100 uM): 0.75 and 0.90 and 0.82
FRET response amplitude ([2]; Glutamate 1 mM): 1.00
change in glutamate EC50 compared to mGluR2 ([2]; inter-TMD FRET sensor, right shift): two-fold
GIRK current amplitude ([3]; Glutamate 10 nM): 0.000
GIRK current amplitude ([3]; Glutamate 10 uM): 0.695 and 0.866
GIRK current amplitude ([3]; Glutamate 100 uM): 1.078 and 0.767 and 0.806
GIRK current amplitude ([3]; Glutamate 1mM): 1.000
EC50 [3, 14]: 1020 ± 170 nM
FRET response amplitude ([4]; Glutamate 1 nM): 0.00
FRET response amplitude ([4]; Glutamate 100 nM): 0.20 and 0.12 and 0.17 and 0.16 and 0.13 and 0.21
FRET response amplitude ([4]; Glutamate 1 uM): 0.69 and 0.42 and 0.65 and 0.66
FRET response amplitude ([4]; Glutamate 10 uM): 0.75 and 0.99 and 0.89
FRET response amplitude ([4]; Glutamate 100 uM): 0.80 and 0.96
FRET response amplitude ([4]; Glutamate 1 mM): 1.00
EC50 [4, 13]: 560 ± 100 nM
Calcium response amplitude ([5]; Glutamate 100 nM): 0.028 and 0.00
Calcium response amplitude ([5]; Glutamate 300 nM): 0.11 (2×) and 0.00 (2×)
Calcium response amplitude ([5]; Glutamate 3 uM): 0.32 and 0.20 and 0.21 and 0.35
Calcium response amplitude ([5]; Glutamate 10 uM): 0.27 and 0.56 and 0.69
Calcium response amplitude ([5]; Glutamate 100 uM): 0.89 and 0.81
EC50 ([5]; read-out: Glutamate EC50 (micromolar), calcium imaging, Fig 3F source data): 11 µM
EC50 [5, 15]: 11 ± 0.1 µM
Calcium response amplitude ([6]; Glutamate 10 nM, replicates): 0.00
Calcium response amplitude ([6]; Glutamate 100 nM, replicates): 0.00
Calcium response amplitude ([6]; Glutamate 1 uM, replicates): 0.09 and 0.064 and 0.00
Calcium response amplitude ([6]; Glutamate 10 uM, replicates): 0.20 and 0.28 and 0.12 and 0.22
Calcium response amplitude ([6]; Glutamate 100 uM, replicates): 0.41 and 0.50
Calcium response amplitude ([6]; Glutamate 1 mM): 0.86
Calcium response amplitude ([6]; Glutamate 10 mM): 1.00
EC50 ([6]; read-out: Glutamate EC50, calcium imaging, normalized to saturating (1 mM) glutamate, unit inferred): 186 ± 0.27 µM
Calcium response amplitude ([7]; Glutamate 100 nM): 0.00
Calcium response amplitude ([7]; Glutamate 1 uM): 0.00 and 0.08 and 0.04
Calcium response amplitude ([7]; Glutamate 10 uM): 0.55 and 0.51
Calcium response amplitude ([7]; Glutamate 100 uM): 1.00 and 0.99 and 0.76
Calcium response amplitude ([7]; Glutamate 1 mM): 1.00
GIRK current amplitude ([8]; Glutamate 100 nM): 0.155 and 0.145 and 0.126 and 0.149
GIRK current amplitude ([8]; Glutamate 1 uM): 0.541 and 0.995 and 0.692
GIRK current amplitude ([8]; Glutamate 10 uM): 0.818 and 1.150 and 0.770 and 0.856 and 1.007
GIRK current amplitude ([8]; Glutamate 100 uM): 1.000
EC50 [8, 14]: 430 ± 100 nM
% Dimerization ([9]; SNAP-mGluR3-C127A-I788A in presence of the ligand, single replicates per experiment day): 41.49% and 28.78% and 34.64% and 33.27% and 41.72% and 37.93%
effect of ligand on dimerization (SiMPull) ([9]; saturating concentration): no difference
GIRK current amplitude ([10]; Glutamate 10 nM): 0.000
GIRK current amplitude ([10]; Glutamate 10 uM): 0.889 and 0.827 and 0.749 and 0.879 and 0.952
GIRK current amplitude ([10]; Glutamate 100 uM): 0.942 and 1.150 and 0.849 and 0.991
GIRK current amplitude ([10]; Glutamate 1 mM): 1.000
Calcium response amplitude ([11]; Glutamate concentration 10 nM): 0.00
Calcium response amplitude ([11]; Glutamate concentration 5 uM): 0.52 and 0.53
Calcium response amplitude ([11]; Glutamate concentration 10 uM): 0.95 and 0.79 and 0.94 and 0.76
Calcium response amplitude ([11]; Glutamate concentration 100 uM): 1.00
Calcium response amplitude ([11]; Glutamate concentration 1 mM): 1.00
Calcium response amplitude ([12]; Glutamate 10 nM): 0.00
Calcium response amplitude ([12]; Glutamate 100 nM): 0.00
Calcium response amplitude ([12]; Glutamate 3 uM): 0.33 and 0.27
Calcium response amplitude ([12]; Glutamate 10 uM): 0.40 and 0.44 and 0.57 and 0.58
Calcium response amplitude ([12]; Glutamate 100 uM): 1.00 and 0.86
Calcium response amplitude ([12]; Glutamate 1 mM): 1.00
EC50 [12, 15]: 9.59 ± 0.06 µM
